{"source": "patent US7910091B2", "about": "“System for trapping flying insects with attractant lures” (Woodstream Corporation, priority 2002, dated 2011)", "key": {"[1]": {"test_system": "mosquitoes", "assay": "Hawaii field test of lactic acid lures in Mosquito Magnet traps, total mosquito catch", "format": "in vivo, Culex quinquefasciatus Aedes albopictus, et al.", "conditions": "w/CO2, average caught in 48 hours", "procedure": "(§1) […] Sample vials containing lactic acid impregnated frits were replaced every 2 days to ensure measurement uniformity. Measured release rates were approximately 4.0 mg/hr to 20 mg/hr. Controls were run with a Professional trap device lacking a lactic acid lure. The number of mosquitoes retained in the catch bag of the insect trapping devices was quantitated for test sample and control runs.\n(§2) The comparison between lactic acid/CO2 and CO2 only used as lures in Mosquito Magnet® Professional (PRO) and Liberty traps are shown in Table 8."}, "[2]": {"test_system": "A. albopictus", "assay": "Hawaii field test of lactic acid lures in Mosquito Magnet traps, A. albopictus catch", "format": "in vivo, Aedes albopictus", "conditions": "w/CO2, average caught in 48 hours", "procedure": "as §1, §2"}, "[3]": {"test_system": "flying insects", "assay": "Additional trap trials: lactic acid lures vs 1-octen-3-ol, Liberty trap with and without lure (FIG. 5)", "format": "in vivo", "conditions": "for Insect capture counts (FIG. 5), in words: compared with CO2 only control / with lactic acid lures", "description": "Also surprising were the results of a trial running a Mosquito Magnet® Liberty trap (American Biophysics Corporation, East Greenwich, R.I., USA) with and without lactic acid lures. […] The addition of a lactic acid lure increased the capture count to about 4,700 flying insects, a surprising enhancement over the effectiveness of the device using CO2 alone. The trial test data are graphically depicted in FIG. 5."}, "[4]": {"test_system": "mosquitoes", "assay": "China test, Mosquito Magnet Liberty traps, total catch of mosquitoes", "format": "in vivo", "conditions": "Wuhu", "description": "(§3) Mosquito types found in China include Culex pipiens pallens (majority), A. albopictus, Anopheles sinensis (minority), and […] subalbatus (minority). […] The daily mosquito catch depended mainly on the seasonal distribution of mosquitoes. […] Mosquito Magnet® Liberty traps were used in this example."}, "[5]": {"test_system": "A. Albopictus", "assay": "China test, Mosquito Magnet Liberty traps, catch of A. albopictus", "format": "in vivo", "conditions": "with CO2, Liberty trap, July 2002, Wuhu, catching in 12 hours", "description": "as §3"}, "[6]": {"conditions": "cited from earlier work"}, "[7]": {"test_system": "Culex pipiens pallens", "assay": "China indoor test of Lurex", "format": "in vivo", "conditions": "CO2 without Lurex, Hefei basement, July 2002, catching in 24 hours", "description": "as §3"}, "[8]": {"assay": "Laboratory release rate test of lactic acid from impregnated frit cartridges in exhaust nozzle", "format": "physicochemical", "description": "Packaging of the sample L-(+)-lactic acid solution was selected with the goal of maximizing efficient dispersal of the lactic acid in the CO2 exhaust plume of the insect trapping device. […] Each frit was impregnated with was 3.5 g to 4.5 g of liquid lactic acid. Release rate testing was initially performed under laboratory conditions to assess the dispersal characteristics of L-(+)-lactic acid from impregnated frit cartridges. The sample vial with its cap removed was placed in a “basket-style” housing having numerous apertures/openings to permit release of lactic acid vapors from the impregnated frit. The housing of the supplemental insect attractant element was inserted into the exhaust nozzle of an insect trapping device. Lactic acid release was measured at two temperatures for comparison purposes. Exhaust plume temperature was set at 87° F. and then 97°°F., accordingly. […] At a constant temperature, here 87°°F., the release rate of lactic acid decreased with time. […] The useful life of a frit cartridge impregnated with liquid L-(+)-lactic acid may vary depending upon the amount of attractant initially loaded into the cartridge, and the environmental conditions to which the cartridge is subjected. The ultimate use- or release-time of a given cartridge can be tailored to meet the release rate needs of a particular environmental condition. […] Longer periods of release are anticipated for polymeric formulations of attractant compositions."}, "[9]": {"assay": "Acute toxicity LD50 oral rat", "format": "in vivo", "description": "A particularly beneficial aspect of using biochemical lures to trap mosquitoes is the large margin of safety associated therewith, particularly when compared with traditional chemical attractants."}, "[10]": {"conditions": "@ 25° C.; cited from earlier work"}, "[11]": {"conditions": "cited from earlier work", "remark": "listed apart in the source"}, "[12]": {"conditions": "PRO trap, February to March 2002"}, "[13]": {"conditions": "Liberty trap, February to March 2002"}, "[14]": {"conditions": "PRO trap, January 2002, higher release rate"}, "[15]": {"conditions": "PRO trap, January 2002, listed as Liquid lactic acid"}}}
{"smiles": "C=CC(O)CCCCC", "note": "(stereo not shown) [1-octen-3-ol, reference compound]", "values": [{"measurement": "Total catch of mosquitoes", "setting": "[1]; [12]", "result": 92}, {"measurement": "Catch of A. Albopictus", "setting": "[2]; [12]", "result": 13}, {"measurement": "Insect capture counts (FIG. 5), in words", "setting": "[3]", "result": "quite inefficient"}, {"measurement": "Flying insects trapped", "setting": "[3]; one trial, over a two-day period, CO2 plume generating devices", "result": "less than 100"}, {"measurement": "Sensitivity of mosquitoes in China to the chemical compared to CO2, in words", "setting": "[4]; Hefei, Shanghai, Liberty traps", "result": "do not seem significantly sensitive"}, {"measurement": "Total catch of mosquitoes", "setting": "[4]; with CO2, Liberty trap, July 2002, China, catching in 12 hours", "result": 196}, {"measurement": "Catch of A. Albopictus", "setting": "[5]", "result": 14}, {"measurement": "LD50/oral/rat", "setting": "[6]", "result": 340, "unit": "mg/kg"}]}
{"smiles": "O=C=O", "note": "[CO2, carbon dioxide]", "values": [{"measurement": "Total catch of mosquitoes (Culex pipiens pallens)", "setting": "[7]", "result": 605}]}
{"smiles": "CC(O)C(=O)O", "note": "(stereo not shown) [Solid lactic acid]", "values": [{"measurement": "Total catch of mosquitoes", "setting": "[1]; [13]", "result": 2537}, {"measurement": "Total catch of mosquitoes", "setting": "[1]; [12]", "result": 243}, {"measurement": "Total catch of mosquitoes", "setting": "[1]; PRO trap, January 2002", "result": 136}, {"measurement": "Total catch of mosquitoes", "setting": "[1]; [14]", "result": 384}, {"measurement": "Catch of A. Albopictus", "setting": "[2]; [13]", "result": 12.7}, {"measurement": "Catch of A. Albopictus", "setting": "[2]; [12]", "result": 52}, {"measurement": "Catch of A. Albopictus", "setting": "[2]; PRO trap, January 2002", "result": 30}, {"measurement": "Catch of A. Albopictus", "setting": "[2]; [14]", "result": 116}]}
{"smiles": "CC(O)C(=O)O", "note": "(stereo not drawn) [FCC 88, L(+)-lactic acid, 2-hydroxy-propionic acid]", "values": [{"measurement": "Release rate", "setting": "[8]; 87° F., time released 0-48 hrs, impregnated frit", "result": "4.0 to 20", "unit": "mg/h"}, {"measurement": "Release rate", "setting": "[8]; 87° F., time released 3-8 days, impregnated frit", "result": "2.0 to 3.5", "unit": "mg/h"}, {"measurement": "Release rate", "setting": "[8]; 97-100° F., 5-9th day, same sample tested before at 87° F.", "result": "5.0 to 7.1", "unit": "mg/h"}, {"measurement": "Estimated time of use of cartridge", "setting": "[8]; cartridge of 3.5 g liquid L-(+)-lactic acid, average release rate 5 mg/hr to 10 mg/hr", "result": "2 to 4", "unit": "weeks"}, {"measurement": "Total catch of mosquitoes", "setting": "[1]; [15]", "result": 313.5}, {"measurement": "Catch of A. Albopictus", "setting": "[2]; [15]", "result": 26}, {"measurement": "Capture count of flying insects", "setting": "[3]; Liberty trap with CO2 plus lure, two-day period", "result": "about 4,700"}, {"measurement": "Insect capture counts (FIG. 5), in words", "setting": "[3]", "result": "substantially improve insect capture counts"}, {"measurement": "Times less toxic than 1-octen-3-ol", "setting": "[9]", "result": "about 11 times"}, {"measurement": "pH", "setting": "[10]", "result": "<2 @ 25 °C"}, {"measurement": "LD50/dermal/rabbit", "setting": "[11]", "result": 2000, "unit": "mg/kg"}]}
